Assay results as given in patent US20140228349A1, “5,7-SUBSTITUTED-IMIDAZO[1,2-C]PYRIMIDINES” (Array BioPharma Inc., priority 2011, published 2014).

Assays:
Assay type in all cases: biochemical
JAK3 = target: T1, JAK3 (Homo sapiens, UniProt P52333); test: JAK3 Inhibition Assay (Omnia kinase fluorescence peptide substrate); conditions: averaged IC50 ranges; 10 μM (Km app) or 1 mM ATP, 2.5 nM JAK3
T1 construct: purchased Invitrogen Corporation, Carlsbad, Calif; IVGN PV4080
T1 sequence (P52333 1-1124): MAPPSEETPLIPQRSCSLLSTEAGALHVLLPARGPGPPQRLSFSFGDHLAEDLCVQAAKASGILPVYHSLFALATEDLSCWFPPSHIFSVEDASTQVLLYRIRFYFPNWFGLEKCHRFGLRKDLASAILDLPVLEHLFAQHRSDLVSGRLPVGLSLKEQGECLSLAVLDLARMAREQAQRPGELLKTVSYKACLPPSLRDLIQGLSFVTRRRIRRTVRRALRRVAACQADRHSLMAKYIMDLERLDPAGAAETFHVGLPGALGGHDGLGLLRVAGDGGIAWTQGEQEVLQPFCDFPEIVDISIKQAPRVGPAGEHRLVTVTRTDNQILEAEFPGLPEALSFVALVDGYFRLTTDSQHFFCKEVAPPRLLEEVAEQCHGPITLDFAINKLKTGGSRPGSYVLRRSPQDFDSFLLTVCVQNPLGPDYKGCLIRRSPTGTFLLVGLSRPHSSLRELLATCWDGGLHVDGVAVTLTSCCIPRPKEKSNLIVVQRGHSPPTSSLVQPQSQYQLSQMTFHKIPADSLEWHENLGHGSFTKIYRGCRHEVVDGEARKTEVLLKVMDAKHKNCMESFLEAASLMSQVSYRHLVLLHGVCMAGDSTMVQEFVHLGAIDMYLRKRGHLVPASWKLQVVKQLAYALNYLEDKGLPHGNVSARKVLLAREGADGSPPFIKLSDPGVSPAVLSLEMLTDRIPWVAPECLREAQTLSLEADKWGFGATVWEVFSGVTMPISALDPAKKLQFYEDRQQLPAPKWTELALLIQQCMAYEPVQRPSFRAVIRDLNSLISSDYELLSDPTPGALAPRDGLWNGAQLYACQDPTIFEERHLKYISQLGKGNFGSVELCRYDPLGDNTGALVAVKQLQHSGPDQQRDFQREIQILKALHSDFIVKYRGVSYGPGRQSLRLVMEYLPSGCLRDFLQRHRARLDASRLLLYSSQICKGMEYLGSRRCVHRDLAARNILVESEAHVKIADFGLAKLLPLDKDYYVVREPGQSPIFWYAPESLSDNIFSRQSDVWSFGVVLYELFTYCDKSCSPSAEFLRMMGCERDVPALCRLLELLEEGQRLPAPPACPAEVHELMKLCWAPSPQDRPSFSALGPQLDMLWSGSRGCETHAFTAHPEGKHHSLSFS
From the text: (§1) The assays described in Examples A, B, C and D for the determination of Tyk2, JAK1, JAK2 and JAK3 kinase activity, respectively, utilized the Omnia® Kinase fluorescence peptide substrate-based technology (Invitrogen). The specific components of the assay mixture are described in Examples A, B, C and D. In these assays, Mg^2+ is chelated upon phosphorylation of the Omnia peptide by the kinase to form a bridge between the chelation-enhanced fluorophore Sox and the phosphate, resulting in an increase in fluorescence emission at 485 nm when excited at […]. The reactions were therefore read at excitation 360 nm and emission was measured at 485 nm every 50 seconds for 45 minutes using a PerkinElmer EnVision Multilabel Plate Reader.
(§2) The final buffer conditions for Tyk2, JAK1, JAK2, and JAK3 assays were as follows: 25 mM HEPES, pH 7.4, 10 mM MgCl2, 0.01% Triton X-100 and 1 mM DTT.
(§3) Compounds were prepared at 50× the final concentration in DMSO by conducting 3-fold serial dilutions from a 500-μM intermediate dilution to give a 10-point dosing curve having a high dose of 10 μM. Two-μL aliquots of these were transferred to a fresh plate for a ten-fold intermediate dilution with assay buffer. Five-μL aliquots of the diluted compounds were then transferred to 20-μL of assay mixtures described in Examples A, B, C and D for a final concentration of DMSO of 2%. A standard or reference compound was typically included on each assay plate to validate that plate. For each plate, percent of control (POC) values were calculated for each well according to the following equation: […]
(§4) IC50's were estimated from the POC's using a standard 4-parameter logistic model:
(§5) The IC50 is defined as the concentration of inhibitor at which the POC equals 50 for the fitted curve.
(§6) Compounds of Formula I were screened for their ability to inhibit JAK3 using the general enzyme inhibition assay method, in which the assay mixture contained 10 μM (Km app) or 1 mM ATP, 10 μM Omnia® Y7 peptide (Catalog #IVGN KNZ3071C, Invitrogen Corporation, Carlsbad, Calif.) and 2.5 nM JAK3 in a total volume of 20 μL. JAK3 was purchased from Invitrogen Corporation, Carlsbad, Calif. (catalog #IVGN PV4080).

Human Tyk2 kinase domain = target: T2, Human Tyk2 kinase domain (Homo sapiens, UniProt P29597); test: Tyk2 Inhibition Assay (Omnia kinase fluorescence peptide substrate); conditions: averaged IC50 ranges; 10 μM (Km app) or 1 mM ATP, 2 nM Tyk2
T2 construct: comprising amino acids 886 to 1187; His10 (10 histidine residues) (C, cleaved yes); made in house
T2 sequence (P29597 886-1187): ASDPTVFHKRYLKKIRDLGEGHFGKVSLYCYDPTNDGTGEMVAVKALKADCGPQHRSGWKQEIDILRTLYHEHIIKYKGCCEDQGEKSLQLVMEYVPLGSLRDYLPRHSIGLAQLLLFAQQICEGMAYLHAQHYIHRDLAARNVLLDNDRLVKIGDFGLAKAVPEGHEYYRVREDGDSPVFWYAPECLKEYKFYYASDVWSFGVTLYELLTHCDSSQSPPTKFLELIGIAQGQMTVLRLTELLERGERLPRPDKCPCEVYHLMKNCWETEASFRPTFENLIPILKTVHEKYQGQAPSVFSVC
From the text: as §1, §2, §3, §4, §5
Compounds of Formula I were screened for their ability to inhibit Tyk2 using the general enzyme inhibition assay method, in which the assay mixture contained 10 μM (Km app) or 1 mM ATP, 8 μM Omnia® Y12 peptide (Catalog #IVGN KPZ3121C; Invitrogen Corporation, Carlsbad, Calif.) and 2 nM Tyk2 in a total volume of 20 μL. Human Tyk2 kinase domain, comprising amino acids 886 to 1187 with 10 additional histidine residues (histidine tag) on the carboxy terminus, was expressed and purified from bacculovirus in-house at Array BioPharma Inc. (Boulder, Colo.). The histidine tag was cleaved after purification using standard conditions.

JAK2 = target: T3, JAK2 (Homo sapiens, UniProt O60674); test: JAK2 Inhibition Assay (Omnia kinase fluorescence peptide substrate); conditions: averaged IC50 ranges; 25 μM (Km app) or 1 mM ATP, 5 nM JAK2
T3 construct: purchased Invitrogen Corporation, Carlsbad, Calif; IVGN PV4288
From the text: as §1, §2, §3, §4, §5
as §6, with “inhibit JAK2” for “inhibit JAK3”, “contained 25” for “contained 10”, “and 5” for “and 2.5”, “nM JAK2” for “nM JAK3”, “μL. JAK2” for “μL. JAK3”, “#IVGN PV4288).” for “#IVGN PV4080).”

JAK1 = target: T4, JAK1 (Homo sapiens, UniProt P23458); test: JAK1 Inhibition Assay (Omnia kinase fluorescence peptide substrate); conditions: averaged IC50 ranges; 40 μM (Km app) or 1 mM ATP, 15 nM JAK1
T4 construct: purchased Invitrogen Corporation, Carlsbad, Calif; IVGN PV4775
From the text: as §1, §2, §3, §4, §5
Compounds of Formula I were screened for their ability to inhibit JAK1 using the general enzyme inhibition assay method, in which the assay mixture contained 40 μM (Km app) or 1 mM ATP, 8 μM Omnia® Y12 peptide (Catalog #IVGN KPZ3121C; Invitrogen Corporation, Carlsbad, Calif.) and 15 nM JAK1 in a total volume of 20 μL. JAK1 was purchased from Invitrogen Corporation, Carlsbad, Calif. (catalog #IVGN PV4775).

T4 sequence (P23458 whole entry): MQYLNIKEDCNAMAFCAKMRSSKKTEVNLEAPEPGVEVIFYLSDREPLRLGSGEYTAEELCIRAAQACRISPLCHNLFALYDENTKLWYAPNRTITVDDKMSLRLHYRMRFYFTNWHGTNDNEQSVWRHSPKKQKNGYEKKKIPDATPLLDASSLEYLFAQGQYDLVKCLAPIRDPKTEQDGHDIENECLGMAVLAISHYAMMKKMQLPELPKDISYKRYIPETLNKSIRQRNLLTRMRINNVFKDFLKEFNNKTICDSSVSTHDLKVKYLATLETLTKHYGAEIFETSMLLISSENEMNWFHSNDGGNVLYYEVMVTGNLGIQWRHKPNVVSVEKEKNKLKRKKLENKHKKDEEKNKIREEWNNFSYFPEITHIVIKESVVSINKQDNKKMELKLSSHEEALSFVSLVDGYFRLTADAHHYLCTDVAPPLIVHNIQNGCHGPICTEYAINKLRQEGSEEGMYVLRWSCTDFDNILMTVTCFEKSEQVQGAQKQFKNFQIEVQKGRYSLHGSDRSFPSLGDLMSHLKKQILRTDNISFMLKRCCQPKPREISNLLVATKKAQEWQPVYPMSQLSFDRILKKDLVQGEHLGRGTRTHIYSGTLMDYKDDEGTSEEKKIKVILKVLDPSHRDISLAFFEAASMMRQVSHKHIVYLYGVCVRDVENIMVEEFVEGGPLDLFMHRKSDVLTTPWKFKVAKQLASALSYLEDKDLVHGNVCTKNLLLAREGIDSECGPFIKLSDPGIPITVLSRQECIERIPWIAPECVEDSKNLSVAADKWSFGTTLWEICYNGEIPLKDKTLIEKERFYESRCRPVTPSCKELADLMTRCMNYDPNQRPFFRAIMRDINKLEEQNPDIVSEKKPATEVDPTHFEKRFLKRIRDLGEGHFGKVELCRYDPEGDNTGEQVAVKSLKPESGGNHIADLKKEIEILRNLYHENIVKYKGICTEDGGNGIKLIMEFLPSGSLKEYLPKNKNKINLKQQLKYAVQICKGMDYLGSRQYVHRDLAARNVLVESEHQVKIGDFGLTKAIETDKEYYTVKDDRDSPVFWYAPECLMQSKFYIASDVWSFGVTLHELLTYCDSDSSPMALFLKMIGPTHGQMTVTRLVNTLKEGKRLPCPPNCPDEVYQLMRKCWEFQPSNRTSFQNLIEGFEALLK
T3 sequence (O60674 whole entry): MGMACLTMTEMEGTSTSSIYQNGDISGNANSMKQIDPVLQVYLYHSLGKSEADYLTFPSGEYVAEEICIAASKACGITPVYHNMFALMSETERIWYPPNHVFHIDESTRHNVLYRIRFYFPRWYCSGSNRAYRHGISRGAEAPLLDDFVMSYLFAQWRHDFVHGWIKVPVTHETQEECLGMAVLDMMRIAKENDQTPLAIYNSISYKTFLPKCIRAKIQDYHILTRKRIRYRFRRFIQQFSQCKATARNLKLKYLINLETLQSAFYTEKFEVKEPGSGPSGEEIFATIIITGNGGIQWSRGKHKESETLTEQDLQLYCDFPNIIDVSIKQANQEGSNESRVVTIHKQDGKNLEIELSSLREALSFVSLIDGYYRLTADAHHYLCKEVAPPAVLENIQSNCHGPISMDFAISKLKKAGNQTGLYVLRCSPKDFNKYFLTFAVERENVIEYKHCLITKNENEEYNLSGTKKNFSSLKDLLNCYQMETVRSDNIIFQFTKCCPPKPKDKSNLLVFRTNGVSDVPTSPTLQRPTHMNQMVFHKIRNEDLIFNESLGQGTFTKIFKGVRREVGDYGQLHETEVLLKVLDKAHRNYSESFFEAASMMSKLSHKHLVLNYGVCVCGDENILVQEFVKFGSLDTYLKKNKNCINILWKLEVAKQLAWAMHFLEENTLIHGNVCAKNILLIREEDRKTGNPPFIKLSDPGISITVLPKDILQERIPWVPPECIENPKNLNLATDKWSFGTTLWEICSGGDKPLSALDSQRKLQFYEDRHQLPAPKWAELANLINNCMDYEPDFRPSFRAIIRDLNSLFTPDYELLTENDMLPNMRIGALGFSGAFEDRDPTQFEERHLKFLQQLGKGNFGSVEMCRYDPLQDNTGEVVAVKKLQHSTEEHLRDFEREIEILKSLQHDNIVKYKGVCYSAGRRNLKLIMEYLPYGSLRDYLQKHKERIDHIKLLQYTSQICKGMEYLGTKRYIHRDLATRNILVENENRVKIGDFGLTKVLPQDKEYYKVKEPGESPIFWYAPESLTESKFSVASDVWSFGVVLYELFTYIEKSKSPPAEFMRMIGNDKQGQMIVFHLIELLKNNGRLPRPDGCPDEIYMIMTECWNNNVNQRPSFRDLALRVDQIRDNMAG

| Structure (SMILES) | IC50 (JAK3) [µM] | IC50 (Human Tyk2 kinase domain) [µM] | IC50 (JAK2) [µM] | IC50 (JAK1) [µM] |
| --- | --- | --- | --- | --- |
| CC(C)S(=O)(=O)N1CC(CCF)(n2cc(-c3nc(-c4cnn(C)c4)cc4nccn34)cn2)C1 [Example 95, 5-(1-(3-(2-fluoroethyl)-1-(isopropylsulfonyl)azetidin-3-yl)-1H-pyrazol-4-yl)-7-(1-methyl-1H-pyrazol-4-yl)imidazo[1,2-c]pyrimidine] | > 1 | 0.1 to 1 | 0.1 to 1 | > 1 |
| Cn1cc(-c2cc3nccn3c(-c3cnn(C4(CCF)CN(CC(F)(F)F)C4)c3)n2)cn1 [Example 19, 5-(1-(3-(2-Fluoroethyl)-1-(2,2,2-trifluoroethyl)azetidin-3-yl)-1H-pyrazol-4-yl)-7-(1-methyl-1H-pyrazol-4-yl)imidazo[1,2-c]pyrimidine] | > 1 | 0.01 to 0.1 | 0.1 to 1 | > 1 |
| Cn1cc(-c2cc3nccn3c(-c3cnn(C4(CCO)CCC4)c3)n2)cn1 [Example 56, 2-(1-(4-(7-(1-methyl-1H-pyrazol-4-yl)imidazo[1,2-c]pyrimidin-5-yl)-1H-pyrazol-1-yl)cyclobutyl)ethanol] | > 1 | 0.1 to 1 | > 1 | > 1 |
| COCCC(C1CCC1)n1cc(-c2nc(-c3cnn(C)c3)cc3nccn23)cn1 (centres unmarked) [Example 76, 5-(1-(1-cyclobutyl-3-methoxypropyl)-1H-pyrazol-4-yl)-7-(1-methyl-1H-pyrazol-4-yl)imidazo[1,2-c]pyrimidine] | > 1 | 0.1 to 1 | 0.1 to 1 | > 1 |
| COCCC1(n2cc(-c3nc(-c4cnn(C)c4)cc4nccn34)cn2)CCC1 [Example 53, 5-(1-(1-(2-methoxyethyl)cyclobutyl)-1H-pyrazol-4-yl)-7-(1-methyl-1H-pyrazol-4-yl)imidazo[1,2-c]pyrimidine] | 0.1 to 1 | 0.1 to 1 | 0.1 to 1 | > 1 |
| C#CCCn1cc(-c2nc(-c3cnn(C)c3)cc3nccn23)cn1 [Example 8, 5-(1-(But-3-yn-1-yl)-1H-pyrazol-4-yl)-7-(1-methyl-1H-pyrazol-4-yl)imidazo[1,2-c]pyrimidine] | 0.1 to 1 | 0.01 to 0.1 | 0.01 to 0.1 | 0.1 to 1 |

The remaining lines, values ahead:

| IC50 (JAK3) [µM] | IC50 (Human Tyk2 kinase domain) [µM] | IC50 (JAK2) [µM] | IC50 (JAK1) [µM] | Structure (SMILES) |
| --- | --- | --- | --- | --- |
| 0.1 to 1 | < 0.01 | 0.01 to 0.1 | 0.01 to 0.1 | Cn1cc(-c2cc3nccn3c(-c3ccn([C@@H](CCF)[C@@H]4CC4(F)F)c3)n2)cn1 [Example 24, 5-(1-((S)-1-((S)-2,2-difluorocyclopropyl)-3-fluoropropyl)-1H-pyrrol-3-yl)-7-(1-methyl-1H-pyrazol-4-yl)imidazo[1,2-c]pyrimidine] |
| 0.01 to 0.1 | < 0.01 | 0.01 to 0.1 | 0.01 to 0.1 | Cn1cc(-c2cc3nccn3c(-c3cnn(C(CC=C(F)F)C4CC4)c3)n2)cn1 (centres unmarked) [Example 54, 5-(1-(1-cyclopropyl-4,4-difluorobut-3-en-1-yl)-1H-pyrazol-4-yl)-7-(1-methyl-1H-pyrazol-4-yl)imidazo[1,2-c]pyrimidine] |
| 0.1 to 1 | 0.01 to 0.1 | 0.01 to 0.1 | 0.1 to 1 | Cn1cc(-c2cc3nccn3c(-c3cnn(C(C/C=C\F)C4CC4)c3)n2)cn1 (centres unmarked) [Example 44, (Z)-5-(1-(1-cyclopropyl-4-fluorobut-3-en-1-yl)-1H-pyrazol-4-yl)-7-(1-methyl-1H-pyrazol-4-yl)imidazo[1,2-c]pyrimidine] |
| 0.1 to 1 | 0.1 to 1 | 0.1 to 1 | 0.1 to 1 | Cn1cc(-c2cc3nccn3c(-c3ccn([C@@H](C[C@@H](O)C(F)(F)F)C4CC4)c3)n2)cn1 [Example 101, (2R,4S)-4-cyclopropyl-1,1,1-trifluoro-4-(3-(7-(1-methyl-1H-pyrazol-4-yl)imidazo[1,2-c]pyrimidin-5-yl)-1H-pyrrol-1-yl)butan-2-ol] |
| > 1 | 0.1 to 1 | 0.1 to 1 | > 1 | C[C@@H](O)C[C@H](C1CC1)n1cc(-c2nc(-c3cnn(C)c3)cc3nccn23)cn1 [Example 40, (2R,4R)-4-cyclopropyl-4-(4-(7-(1-methyl-1H-pyrazol-4-yl)imidazo[1,2-c]pyrimidin-5-yl)-1H-pyrazol-1-yl)butan-2-ol] |
